Laboratory results published in patent US20100285957A1, “THIAZOLYLOXYPHENYLAMIDINES OR THIADIAZOLYLOXYPHENYLAMIDINES AND THEIR USE AS FUNGICIDES” (Bayer CropScience AG, priority 2007, published 2010).
Read-outs that look alike come from different tables or passages of the source.

How the values were obtained:
Phakopsora pachyrhizi = assay: Phakopsora test (soya)/protective; type: in vivo; conditions: 264 h, 100 ppm active substance, protective, evaluation 11 days after inoculation, read-out: degree of effectiveness
Experimental: Phakopsora Test (Soya)/Protective
(§1) To prepare a suitable active substance composition, 1 part by weight of active substance is mixed with the given amounts of solvent and emulsifier and the concentrate is diluted to the desired concentration using water.
For the testing of protective effectiveness, young plants are sprayed with the active substance composition in the application rate given. After the spray coating has been dried on, the plants are inoculated with an aqueous suspension of the spores of Phakopsora pachyrhizi and then remain in an incubation chamber at approximately 20° C. and 80% relative humidity for 1 day.
Evaluation is carried out 11 days after the inoculation. In this connection, 0% means a degree of effectiveness corresponding to that of the control, while a degree of effectiveness of 100% means that no infestation is observed.

Uromyces appendiculatus = assay: Uromyces test (beans)/protective; type: in vivo; conditions: 240 h, 100 ppm active substance, protective, evaluation 10 days after inoculation, read-out: degree of effectiveness
Experimental: Uromyces Test (Beans)/Protective [table] To prepare a suitable active substance composition, 1 part by weight of active substance is mixed with the given amounts of solvents and emulsifier and the concentrate is diluted to the desired concentration using water. For the testing of protective effectiveness, young plants are sprayed with the active substance composition in the application rate given. After the spray coating has been dried on, the plants are inoculated with an aqueous suspension of the spores of the bean rust pathogen Uromyces appendiculatus and then remain in an incubation chamber at approximately 20° C. and 100% relative humidity for 1 day. The plants are then placed in a greenhouse at approximately 21° C. and a relative humidity of approximately 90%. Evaluation is carried out 10 days after the inoculation. In this connection, 0% means a degree of effectiveness corresponding to that of the control, while a degree of effectiveness of 100% means that no infestation is observed.

[1] = system: Puccinia recondita var. tritici; assay: Puccinia test (wheat)/protective; type: in vivo; conditions: 240 h, 1000 ppm active substance, protective, evaluation 10 days after inoculation, read-out: degree of effectiveness
Experimental: Puccinia Test (Wheat)/Protective
as §1
For the testing of protective effectiveness, young plants are sprayed with the active substance composition in the application rate given. After the spray coating has been dried on, the plants are sprayed with a suspension of the conidia of Puccinia recondita var. tritici. The plants remain in an incubation chamber at 20° C. and 100% relative humidity for 48 hours.
The plants are then placed in a greenhouse at a temperature of approximately 20° C. and a relative humidity of 80%, in order to encourage the development of rust pustules.
Evaluation is carried out 10 days after the inoculation. In this connection, 0% means a degree of effectiveness corresponding to that of the control, while a degree of effectiveness of 100% means that no infestation is observed.

Sphaerotheca fuliginea = assay: Sphaerotheca test (cucumber)/protective; type: in vivo; conditions: Podosphaera fuliginea, 168 h, 100 ppm active substance, protective, evaluation 7 days after inoculation, read-out: degree of effectiveness
Experimental: Sphaerotheca Test (Cucumber)/Protective [table] To prepare a suitable active substance composition, 1 part by weight of active substance is mixed with the given amounts of solvents and emulsifier and the concentrate is diluted to the desired concentration using water. For the testing of protective effectiveness, young plants are sprayed with the active substance composition in the application rate given. After the spray coating has been dried on, the plants are inoculated with an aqueous suspension of spores of Sphaerotheca fuliginea. The plants are then placed in a greenhouse at approximately 23° C. and a relative humidity of approximately 70%. Evaluation is carried out 7 days after the inoculation. In this connection, 0% means a degree of effectiveness corresponding to that of the control, while a degree of effectiveness of 100% means that no infestation is observed.

Alternaria solani = assay: Alternaria test (tomato)/protective; type: in vivo; conditions: 168 h, 500 ppm active substance, protective, evaluation 7 days after inoculation, read-out: degree of effectiveness
Experimental: Alternaria Test (Tomato)/Protective [table] To prepare a suitable active substance composition, 1 part by weight of active substance is mixed with the given amounts of solvent and emulsifier and the concentrate is diluted to the desired concentration using water. For the testing of protective effectiveness, young tomato plants are sprayed with the active substance composition in the application rate given. 1 day after the treatment, the plants are inoculated with a suspension of the spores of Alternaria solani and then stand at 100% relative humidity and 20° C. for 24 h. Subsequently, the plants stand at 96% relative humidity and a temperature of 20° C. Evaluation is carried out 7 days after the inoculation. In this connection, 0% means a degree of effectiveness corresponding to that of the control, while a degree of effectiveness of 100% means that no infestation is observed.

[2] = system: Blumeria graminis f.sp. hordei; assay: Blumeria graminis test (barley)/protective; type: in vivo; conditions: 168 h, 1000 ppm active substance, protective, evaluation 7 days after inoculation, read-out: degree of effectiveness
Experimental: Blumeria graminis Test (Barley)/Protective
as §1
For the testing of protective effectiveness, young plants are sprayed with the active substance composition in the application rate given.
After the spray coating has been dried on, the plants are dusted with spores of Blumeria graminis f.sp. hordei.
The plants are placed in a greenhouse at a temperature of approximately 20° C. and a relative humidity of approximately 80%, in order to encourage the development of mildew pustules.
Evaluation is carried out 7 days after the inoculation. In this connection, 0% means a degree of effectiveness corresponding to that of the control, while a degree of effectiveness of 100% means that no infestation is observed.

Pyrenophora teres = Pyrenophora teres test (barley)/protective; type: in vivo; conditions: 500 ppm active substance, protective, evaluation 7-9 days after inoculation, read-out: degree of effectiveness
Experimental: Pyrenophora teres Test (Barley)/Protective
as §1
For the testing of protective effectiveness, young barley plants are sprayed with the active substance composition in the application rate given. 1 day after the treatment, the plants are inoculated with an aqueous suspension of the spores of Pyrenophora teres and then remain at 100% relative humidity and 20° C. for 48 h. Subsequently, the plants are placed in a greenhouse at 80% relative humidity and a temperature of 20° C.
Evaluation is carried out 7-9 days after the inoculation. In this connection, 0% means a degree of effectiveness corresponding to that of the control, while a degree of effectiveness of 100% means that no infestation is observed.

Row | SMILES | logP (physchem; pH 2.3) | logP (physchem) | pest or weed control at 100 ppm (Phakopsora pachyrhizi) [%] | pest or weed control at 100 ppm (Uromyces appendiculatus) [%] | pest or weed control at 1000 ppm [1] [%] | pest or weed control at 100 ppm (Sphaerotheca fuliginea) [%] | pest or weed control at 500 ppm (Alternaria solani) [%] | pest or weed control at 1000 ppm [2] [%] | pest or weed control at 500 ppm (Pyrenophora teres) [%]
1 | CCN(C)C=Nc1cc(C)c(Oc2nc(C3CC3)ns2)cc1C [Compound 1, N′-{4-[(3-Cyclopropyl-1,2,4-thiadiazol-5-yl)oxy]-2,5-dimethylphenyl}-N-ethyl-N-methylimidoformamide] | 1.59 |  | ≥ 80 | ≥ 70 | ≥ 70 | ≥ 70 | ≥ 70 | ≥ 70 | ≥ 70
2 | Cc1cc(Oc2nc(C3CC3)ns2)c(C)cc1N=CN(C)C(C)C [Compound 2, N′-{4-[(3-Cyclopropyl-1,2,4-thiadiazol-5-yl)oxy]-2,5-dimethylphenyl}-N-methyl-N-(1-methyl-ethyl)imidoformamide] | 1.91 |  | ≥ 80 | ≥ 70 | ≥ 70 | ≥ 70 | ≥ 70 | ≥ 70 | ≥ 70
3 | Cc1cc(Oc2nc(C3(C)CC3)ns2)c(C)cc1N=CN(C)C(C)C [Compound 10, N′-(2,5-Dimethyl-4-{[3-(1-methylcyclopropyl)-1,2,4-thiadiazol-5-yl]oxy}phenyl)-N-methyl-N-(1-methylethyl)imidoformamide] | 2.03 |  | ≥ 80 | ≥ 70 | ≥ 70 | ≥ 70 |  | ≥ 70 | ≥ 70
4 | CCN(C)C=Nc1cc(C)c(Oc2nc(C3(Cl)CC3)ns2)cc1C [Compound 12, N′-(4-{[3-(1-Chlorocyclopropyl)-1,2,4-thiadiazol-5-yl]oxy}-2,5-dimethylphenyl)-N-ethyl-N-methylimidoformamide] | 1.59 |  | ≥ 80 | ≥ 70 | ≥ 70 | ≥ 70 |  | ≥ 70 | ≥ 70

Second part, led by results:

Row | logP (physchem; pH 2.3) | logP (physchem) | SMILES | pest or weed control at 100 ppm (Phakopsora pachyrhizi) [%] | pest or weed control at 100 ppm (Uromyces appendiculatus) [%] | pest or weed control at 1000 ppm [1] [%] | pest or weed control at 100 ppm (Sphaerotheca fuliginea) [%] | pest or weed control at 500 ppm (Alternaria solani) [%] | pest or weed control at 1000 ppm [2] [%] | pest or weed control at 500 ppm (Pyrenophora teres) [%]
5 | 2.22 | 5.86 | Cc1cc(Oc2nc(C3(Cl)CC3)c(Cl)s2)c(C)cc1N=CN(C)C(C)C [Compound 17, N′-(4-{[5-Chloro-4-(1-chlorocyclopropyl)-1,3-thiazol-2-yl]oxy}-2,5-dimethylphenyl)-N-methyl-N-(1-methylethyl)imidoformamide] | ≥ 80 | ≥ 70 | ≥ 70 | ≥ 70 |  | ≥ 70 | ≥ 70
6 | 2.21 |  | CCN(C)C=Nc1cc(C)c(Oc2nc(C3(CC)C(C)C3(Cl)Cl)ns2)cc1C (centres unmarked) [Compound 27, N′-(4-{[3-(2,2-Dichloro-1-ethyl-3-methylcyclopropyl)-1,2,4-thiadiazol-5-yl]oxy}-2,5-dimethylphenyl)-N-ethyl-N-methylimidoformamide] | ≥ 80 | ≥ 70 |  | ≥ 70 |  |  | ≥ 70
7 | 1.58 | 4.38 | CCN(C)C=Nc1cc(C)c(Oc2nc(C3(F)CC3)cs2)cc1C [Compound 29, N-Ethyl-N′-(4-{[4-(1-fluorocyclopropyl)-1,3-thiazol-2-yl]oxy}-2,5-dimethylphenyl)-N-methylimidoformamide] | ≥ 80 | ≥ 70 |  | ≥ 70 | ≥ 70 |  | ≥ 70
8 | 1.92 | 5.08 | CCN(C)C=Nc1cc(C)c(Oc2nc(C3(F)CC3)c(Cl)s2)cc1C [Compound 30, N′-(4-{[5-Chloro-4-(1-fluorocyclopropyl)-1,3-thiazol-2-yl]oxy}-2,5-dimethylphenyl)-N-ethyl-N-methylimidoformamide] | ≥ 80 | ≥ 70 |  | ≥ 70 |  |  | ≥ 70
